Assay results published in EP4729529A1, “PREPARATION OF PEPTIDE INHIBITOR OF INTERLEUKIN-23 RECEPTOR AND USE THEREOF” (Xizang Haisco Pharmaceutical Co., Ltd., priority 2023, dated 2024).
Positions of bridges follow the written chain, without caps; N, C: chain ends. Non-standard residues stand in square brackets, D forms with d. Residues, ends and D or L forms follow the SMILES beside them. Phe(4-OC2H4NH2,2,3-(CH2)3) = NCCOc1ccc(C[C@H](N)C(=O)O)c2c1CCC2; Trp(7-Me) = Cc1cccc2c(C[C@H](N)C(=O)O)c[nH]c12; 2Nal = N[C@@H](Cc1ccc2ccccc2c1)C(=O)O; 3Pal = N[C@@H](Cc1cccnc1)C(=O)O; Pen = CC(C)(S)[C@H](N)C(=O)O; Thp = NC1(C(=O)O)CCOCC1; Sar = CNCC(=O)O

Columns and labels:
IL-23R = target: T1, IL-23R (Homo sapiens, UniProt Q5VWK5); experiment: IL-23R reporter gene assay (HEK-blue IL23 reporter gene cell line, rhIL23 stimulation); assay type: cell-based; conditions: Inhibition of IL-23R, rhIL23 1 ng/mL, 24 hours
T1 construct: host or cells: HEK-blue IL23 reporter gene cell line
T1 sequence (Q5VWK5 24-629): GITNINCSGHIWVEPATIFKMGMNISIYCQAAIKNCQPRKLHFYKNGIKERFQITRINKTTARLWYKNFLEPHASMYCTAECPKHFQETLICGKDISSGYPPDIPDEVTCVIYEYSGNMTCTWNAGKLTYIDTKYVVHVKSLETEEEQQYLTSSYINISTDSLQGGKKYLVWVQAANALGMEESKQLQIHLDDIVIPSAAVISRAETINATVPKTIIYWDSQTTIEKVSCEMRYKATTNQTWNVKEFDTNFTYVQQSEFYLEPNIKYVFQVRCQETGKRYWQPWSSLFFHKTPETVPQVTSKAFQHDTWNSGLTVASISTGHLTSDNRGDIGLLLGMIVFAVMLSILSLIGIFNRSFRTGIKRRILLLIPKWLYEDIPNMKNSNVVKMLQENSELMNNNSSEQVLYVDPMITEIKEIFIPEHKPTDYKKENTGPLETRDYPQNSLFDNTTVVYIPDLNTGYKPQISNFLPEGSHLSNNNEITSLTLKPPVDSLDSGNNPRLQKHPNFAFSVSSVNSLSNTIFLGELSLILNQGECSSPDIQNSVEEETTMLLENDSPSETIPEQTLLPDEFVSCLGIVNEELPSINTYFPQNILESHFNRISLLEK
Summary of the method: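 HEK-blue IL23 reporter cells (5000/well, plated overnight) preincubated 0.5 h with compound, then stimulated 24 h at 37°C with rhIL23 at 1 ng/mL final. Supernatant read with Quanti-Blue after 1 h (absorbance 620-655 nm); inhibition normalised to DMSO and unstimulated controls, IC50 from four-parameter fit.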

[1] = Test of stability in gastrointestinal fluid: simulated intestinal fluid (trypsin, pH 6.8); assay type: in vitro ADME; conditions: 0.5 mg/ml, 37°C
Protocol: (§1) 6. Test of stability in gastrointestinal fluid
1.3. Preparation of 0.1 mol/L NaOH: 0.4 g of NaOH was dissolved in 100 ml of water.
1.4. Preparation of simulated intestinal fluid: 0.68 g of potassium dihydrogen phosphate was dissolved in 50 ml of water, and the pH value was adjusted to 6.8 with 0.1 mol/L sodium hydroxide solution. 1 g of trypsin was dissolved in an appropriate amount of water. After the two solutions were mixed, the mixture was diluted with water to 1000 ml.
(§2) About 12.5 mg of the sample was added to a 25 ml volumetric flask and dissolved in the simulated gastric fluid (or simulated intestinal fluid), and the mixture was diluted to the mark.
(§3) Instrument model: Agilent 1260 Infinity; mobile phase A: 10 mmol/L K2HPO4, and mobile phase B: acetonitrile; column: Phenomenex Gemini^@ 3 um C18 110Å 150 * 4.6 mm; wavelength: 224 nm; column temperature: 30°C; sample tray temperature: 37°C; injection time: 35 min; injection volume: 10 ul; injection mode: gradient injection; and gradient method. Table 7. Gradient mobile phase
(§4) Sampling and testing: Firstly, the blank solution (simulated gastric fluid or simulated intestinal fluid) was tested. Then, the prepared sample (newly prepared for use) was placed in the injection tray for immediate injection. Then, a needle of sample was injected at 4.5 h, 9.5 h, and 18 h, respectively.
(§5) Table 8. Stability in gastrointestinal fluid

[2] = Test of stability in plasma, rat; assay type: in vitro ADME; conditions: read-out: Residual rate% at 37°C for 6 h
Protocol: 5. Test of stability in plasma
In this experiment, plasmas of five species, including human, monkey, dog, rat, and mouse, were used to evaluate the stability in plasma of Compound 7.
A plasma sample was prepared at a concentration level of 1000 ng/mL, and dispensed into EP tubes at time points 0 h and 6 h. Acetonitrile solution containing an internal standard was added directly to the 0 h sample; and the 6 h sample was placed at 37°C for the corresponding time, and then added with an acetonitrile solution containing internal standard. The concentration of the test compound in the sample was measured by the LC-MS/MS method, and the residual rate was calculated from the ratio of the peak areas of the test compound to the internal standard in the time point sample and the 0 h sample.
Experimental results: At the concentration level of 1000 ng/mL under the test conditions, the residual rates of the test Compounds were shown in Table 6 below. Table 6. Residual rate% at 37°C for 6 h

[3] = Test of stability in gastrointestinal fluid: simulated gastric fluid (pepsin); assay type: in vitro ADME; conditions: 0.5 mg/ml, 37°C
Protocol: as §1
1.1. Preparation of dilute hydrochloric acid: 23.4 ml of hydrochloric acid was diluted with water to 1000 ml.
1.2. Preparation of simulated gastric fluid: 1.64 ml of dilute hydrochloric acid and 1 g of pepsin were added to about 80 ml of water. After being shaken well, the mixture was diluted with water to 100 ml.
as §2, §3, §4, §5

## CC(=O)NCCCC[C@@H]1NC(=O)[C@H](Cc2c[nH]c3c(C)cccc23)NC(=O)[C@H]([C@@H](C)O)NC(=O)[C@H](Cc2c[nH]cn2)NC(=O)[C@@H](NC(C)=O)C(C)(C)SSC(C)(C)[C@@H](C(=O)N[C@@H](Cc2ccc(OCCN)c3c2CCC3)C(=O)N[C@@H](Cc2ccc3ccccc3c2)C(=O)NC2(C(=O)N[C@@H](CCC(=O)O)C(=O)N[C@@H](CC(N)=O)C(=O)N[C@@H](Cc3cccnc3)C(=O)N(C)CC(N)=O)CCOCC2)NC1=O [Compound 7] (Ac-[Pen]HT[Trp(7-Me)]K(Ac)[Pen][Phe(4-OC2H4NH2,2,3-(CH2)3)][2Nal][Thp]EN[3Pal][Sar]-NH2; disulfide 1-6)
IL-23R
  IC50: 6.38 nM
[1]; 0 h
  Peak area%: 94.095%
[1]; 4.5 h
  Peak area%: 93.552%
[1]; 9.5 h
  Peak area%: 93.575%
[1]; 18 h
  Peak area%: 94.831%
[2]
  remaining at 6 h, 1000 ng/mL: 98.3%
[3]; 0 h
  Peak area%: 95.281%
[3]; 4.5 h
  Peak area%: 94.678%
[3]; 9.5 h
  Peak area%: 96.304%
[3]; 18 h
  Peak area%: 93.661%
